According to US20170184612A1, “USE OF LEUKOCYTES AND NOVEL BIOMARKERS IN THE DIAGNOSIS, CONFIRMATION, AND TREATMENT OF A NEUROLOGICAL DISORDER” (The Trustees of Columbia University in the City of New York, priority 2014, published 2017):

What was measured:
[1] = tested on: peripheral blood mononuclear cells (PBMC), T cells; assay: ELISpot assay, gamma-interferon release (SFC) after stimulation with a-synuclein epitope pools; type: cell-based, human; conditions: for Pool +: IFNg, Pool Stimulated, number of donors with a positive response, Donors tested 1
Protocol: (§1) Blood from age matched controls and PD patients were obtained and mononuclear cells were isolated by gradient centrifugation.
(§2) Release of the cytokines gamma-interferon, which measures activation of CD4+ and/or CD8+ T cells, and the interleukin, IL-5, which measures activation of CD4+ T cells was measured by ELISpot assay. […] After 22 hours of stimulation at 37 C, the cells were removed and release of cytokines was measured by colorimetric detection of spot-forming cells (SFC). Confirmed release of cytokine is determined by the presence of a minimum of 20 SFC per million cells.
(§3) The binding algorithms in SubAim 1 predict how well the peptides would bind to MHC if present, but not if they are present in patients. To determine this, the presence of T cell response against the candidate antigens by patient blood-derived peripheral blood mononuclear cells (PBMC) is assessed by ELISPOT assays upon stimulation with the peptides. This assay detects and quantifies cytokine release (in this case, IFNγ and IL-5) from specific activated T cells.
(§4) Data were obtained from blood samples (25 ml) from 44 PD patients and 24 age-matched controls. The experiments were conducted blindly. PBMCs from these samples were isolated and exposed to pools comprising the 122 candidate class I and class II antigens and phosphorylated S129 epitopes generated in Subaim 1. For the PBMCs responsive to the pooled peptides, the response was then deconvoluted to identify individual epitopes.
(§5) PMBC fractions are recovered by standard methods with Ficoll gradient and T cells expansion (Oseroff et al., 2010). The methods for the analysis of T cell reactions and measurement of cytokines production using the enzyme-linked immunosorbent spot (ELISPOT) assay are published in analogous experiments to discover antigens in multiple sclerosis (Lolli et al., 2013) and in hay fever allergens (Oseroff et al., 2010). T cell responses are determined by measuring IFNγ and IL-5 release by ELISPOT. Statistical analysis of differences between populations is expected to be non-parametric and analyzed with the U-Mann-Whitney test. If there were a normal distribution of response, which is a priori unlikely as some patients have no T cell response, with an SD=1, 8 patients per group would be required to provide a p>90% that the study detect a >2 fold difference at a two-sided 0.05 significance level.

[2] = tested on: peripheral blood mononuclear cells (PBMC), T cells; assay: ELISpot assay, IL-5 release (SFC) after stimulation with a-synuclein epitope pools; type: cell-based, human
Protocol: as §1, §2, §3, §4, §5

[3] = Patients Summary, PD patients, of donors tested (peptide)
[4] = Patients Summary, PD patients, single peptide
[5] = number of donors positive to the single peptide, second 'Pool Stimulated' section (from r296), 12 donors tested
[6] = peptide + / donors tested (peptide), second 'Pool Stimulated' section (from r296), 12 donors tested
[7] = single peptide, second 'Pool Stimulated' section (from r296), 12 donors tested
[8] = pool 'Phospho' (phosphorylated peptides)
[9] = Patients Summary, Phospho pool peptides
[10] = Patients Summary, Phospho pool peptides, 10 donors tested
[11] = peptides of pool 'Poshpho', 8 donors tested
[12] = peptides of pool 'Poshpho', 8 donors tested, number of donors positive

Substance	Pool + [1]	IFNg Peptide + (donors positive to the peptide) [1, 3]	IFNg Response Frequency [1, 4]	IFNg Total SFC [1, 4]	IFNg Peptide + [1, 5]	IFNg Response Frequency [1, 6]	IFNg Total SFC [1, 7]	IL-g Peptide + (donors positive to the peptide) [2, 3]	IL-g Response Frequency [2, 4]	IL-g Total SFC [2, 4]	IL-g Peptide + [2, 5]	IL-g Response Frequency [2, 6]	IL-g Total SFC [2, 7]	other results
3521.0013 (VTNVGGAVV; listed as Homo sapiens)	0	1	50%	209 SFC	0	0%	0 SFC	0	0%	0 SFC	0	0%	0 SFC	IFNg Avg SFC [1, 4]: 209 SFC
3521.0014 (KTVEGAGSI; listed as Homo sapiens)	0	0	0%	0 SFC	0	0%	0 SFC	0	0%	0 SFC	0	0%	0 SFC	
3521.0015 (KTKEQVTNV; listed as Homo sapiens)	0	0	0%	0 SFC	0	0%	0 SFC	0	0%	0 SFC	0	0%	0 SFC	
3521.0018 (MPVDPDNEA; listed as Homo sapiens)	0	0	0%	0 SFC	0	0%		0	0%	0 SFC	0	0%	0 SFC	
3521.0019 (APGKTKEGV; listed as Homo sapiens)	0	0	0%	0 SFC	0	0%	0 SFC	0	0%	0 SFC	0	0%	0 SFC	
3521.0021 (PGKTKEGVL; listed as Homo sapiens)	0	1	13%	36 SFC	0	0%	0 SFC	0	0%	0 SFC	0	0%	0 SFC	IFNg Avg SFC [1, 4]: 36 SFC
3521.0022 (GSIAAATGF; listed as Homo sapiens)	0	0	0%	0 SFC	0	0%	0 SFC	0	0%	0 SFC	0	0%	0 SFC	
3521.0023 (YEMPSEEGY; listed as Homo sapiens)	0	0	0%	0 SFC	0	0%		0	0%	0 SFC	1	50%	58 SFC	Pool + [1, 8]: 1; IFNg Avg SFC [1, 9]: 680 SFC; IFNg Response Frequency [1, 9]: 30%; IFNg Total SFC [1, 9]: 2039 SFC; IFNg Peptide + (donors positive to the peptide) [1, 10]: 3; IFNg Avg SFC [1, 11]: 333 SFC; IFNg Response Frequency [1, 11]: 13%; IFNg Total SFC [1, 11]: 333 SFC; IFNg Peptide + [1, 12]: 1; IL-g Avg SFC [2, 9]: 1593 SFC; IL-g Response Frequency [2, 9]: 10%; IL-g Total SFC [2, 9]: 1593 SFC; IL-g Peptide + (donors positive to the peptide) [2, 10]: 1; IL-g Avg SFC [2, 11]: 193 SFC; IL-g Response Frequency [2, 11]: 13%; IL-g Total SFC [2, 11]: 193 SFC; IL-g Peptide + [2, 12]: 1; IL-g Avg SFC [2, 7]: 58 SFC
3521.0024 (DPDNEAYEM; listed as Homo sapiens)	0	0	0%	0 SFC		50%	93.3 SFC	0	0%	0 SFC	1	50%	300 SFC	IL-g Avg SFC [2, 7]: 300 SFC
3521.0025 (EEGAPQEGI; listed as Homo sapiens)	0	1	25%	290 SFC	0	0%	0 SFC	2	50%	172 SFC	0	0%	0 SFC	IFNg Avg SFC [1, 4]: 290 SFC; IL-g Avg SFC [2, 4]: 86 SFC
3521.0026 (MPSEEGYQD; listed as Homo sapiens)	0	0	0%	0 SFC	0	0%		0	0%	0 SFC	1	50%	66 SFC	Pool + [1, 8]: 1; IFNg Avg SFC [1, 9]: 407 SFC; IFNg Response Frequency [1, 9]: 40%; IFNg Total SFC [1, 9]: 1627 SFC; IFNg Peptide + (donors positive to the peptide) [1, 10]: 4; IFNg Avg SFC [1, 11]: 27 SFC; IFNg Response Frequency [1, 11]: 13%; IFNg Total SFC [1, 11]: 27 SFC; IFNg Peptide + [1, 12]: 1; IL-g Avg SFC [2, 9]: 773 SFC; IL-g Response Frequency [2, 9]: 10%; IL-g Total SFC [2, 9]: 773 SFC; IL-g Peptide + (donors positive to the peptide) [2, 10]: 1; IL-g Avg SFC [2, 11]: 93 SFC; IL-g Response Frequency [2, 11]: 13%; IL-g Total SFC [2, 11]: 93 SFC; IL-g Peptide + [2, 12]: 1; IL-g Avg SFC [2, 7]: 66 SFC
3521.0027 (AYEMPSEEGY; listed as Homo sapiens)	0	0	0%	0 SFC	0	0%		0	0%	0 SFC	0	0%	0 SFC	Pool + [1, 8]: 1; IFNg Avg SFC [1, 9]: 700 SFC; IFNg Response Frequency [1, 9]: 20%; IFNg Total SFC [1, 9]: 1400 SFC; IFNg Peptide + (donors positive to the peptide) [1, 10]: 2; IFNg Avg SFC [1, 11]: 53 SFC; IFNg Response Frequency [1, 11]: 13%; IFNg Total SFC [1, 11]: 53 SFC; IFNg Peptide + [1, 12]: 1; IL-g Avg SFC [2, 9]: 530 SFC; IL-g Response Frequency [2, 9]: 20%; IL-g Total SFC [2, 9]: 1060 SFC; IL-g Peptide + (donors positive to the peptide) [2, 10]: 2; IL-g Avg SFC [2, 11]: 87 SFC; IL-g Response Frequency [2, 11]: 13%; IL-g Total SFC [2, 11]: 87 SFC; IL-g Peptide + [2, 12]: 1
